Measurements from the supplement of paper PMC13207355.
Counter-ions that a name gives are not always drawn.

Experiments:
Conditions in all cases: exposure time: 72 h
[1] = tested on: E31 (patient-derived glioblastoma stem cells of proneural subtype); test: surviving fraction (nuclei count normalised to DMSO); higher = more cells surviving (less toxic)
[2] = tested on: E28 (patient-derived glioblastoma stem cells of classical subtype); test: as above
[3] = tested on: E21 (patient-derived glioblastoma stem cells of mesenchymal subtype); test: as above
[4] = tested on: E13 (patient-derived glioblastoma stem cells of classical subtype); test: as above
[5] = tested on: FT3469 (normal neural stem cell line); test: as above
[6] = tested on: E34 (patient-derived glioblastoma stem cells of proneural subtype); test: as above
[7] = tested on: E57 (patient-derived glioblastoma stem cells of mesenchymal subtype); test: as above
[8] = tested on: E31; test: phenotypic distance (Euclidean, principal components) from DMSO controls (arbitrary units); higher = stronger morphological change
[9] = tested on: E28; test: as above
[10] = tested on: E21; test: as above
[11] = tested on: E13; test: as above
[12] = tested on: FT3469; test: as above
[13] = tested on: E34; test: as above
[14] = tested on: E57; test: as above
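Wherever phenotypic distance (Euclidean, principal components) from DMSO controls is given: cell Painting imaging in 384-well plates, CellProfiler features reduced to at least 20 principal components, Euclidean distance versus same-plate DMSO vehicle wells (0.1% v/v), median over six images per well.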
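Wherever surviving fraction (nuclei count normalised to DMSO) is given: nuclei counted by high-content imaging of Hoechst-stained cells in laminin-coated 384-well plates, relative to 0.1% DMSO vehicle wells, with staurosporine as cell-death control.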

CC1=C(/C=C/C(C)=C/C=C/C(C)=C/C(=O)Nc2ccc(O)cc2)C(C)(C)CCC1 [Retinoic acid p-hydroxyanilide]
Conditions	phenotypic distance	surviving fraction
[1], 4.1 nM	–	0.912
[1], 12.3 nM	–	0.905
[1], 37 nM	–	0.993
[1], 333.3 nM	–	1.05
[1], 1000 nM	–	0.927
[1], 3000 nM	–	0.00743
[2], 4.1 nM	–	1.11
[2], 12.3 nM	–	0.963
[2], 37 nM	–	1.13
[2], 333.3 nM	–	1.08
[2], 1000 nM	–	0.931
[2], 3000 nM	–	0.00413
[3], 4.1 nM	–	1.05
[3], 12.3 nM	–	0.947
[3], 37 nM	–	0.953
[3], 333.3 nM	–	1.02
[3], 1000 nM	–	0.781
[3], 3000 nM	–	0.00532
[4], 4.1 nM	–	0.963
[4], 12.3 nM	–	0.967
[4], 37 nM	–	1.09
[4], 333.3 nM	–	1.07
[4], 1000 nM	–	0.734
[4], 3000 nM	–	0.00947
[5], 4.1 nM	–	1
[5], 12.3 nM	–	1.04
[5], 37 nM	–	1.04
[5], 333.3 nM	–	0.89
[5], 1000 nM	–	0.901
[5], 3000 nM	–	0.0056
[6], 4.1 nM	–	1.28
[6], 12.3 nM	–	1.05
[6], 37 nM	–	0.937
[6], 333.3 nM	–	1.08
[6], 1000 nM	–	0.967
[6], 3000 nM	–	0.00196
[7], 4.1 nM	–	1.12
[7], 12.3 nM	–	1.08
[7], 37 nM	–	1.05
[7], 333.3 nM	–	1.06
[7], 1000 nM	–	1.03
[7], 3000 nM	–	0.00394
[8], 4.1 nM	0.825	–
[8], 12.3 nM	0.482	–
[8], 37 nM	0.638	–
[8], 333.3 nM	1.69	–
[8], 1000 nM	2.86	–
[8], 3000 nM	18.6	–
[9], 4.1 nM	0.643	–
[9], 12.3 nM	0.734	–
[9], 37 nM	0.511	–
[9], 333.3 nM	0.842	–
[9], 1000 nM	1.73	–
[9], 3000 nM	19.3	–
[10], 4.1 nM	0.779	–
[10], 12.3 nM	0.993	–
[10], 37 nM	0.775	–
[10], 333.3 nM	1.03	–
[10], 1000 nM	2.42	–
[10], 3000 nM	10.8	–
[11], 4.1 nM	0.545	–
[11], 12.3 nM	0.333	–
[11], 37 nM	0.641	–
[11], 333.3 nM	3.32	–
[11], 1000 nM	4.24	–
[11], 3000 nM	9.85	–
[12], 4.1 nM	0.589	–
[12], 12.3 nM	0.564	–
[12], 37 nM	0.708	–
[12], 333.3 nM	1.89	–
[12], 1000 nM	2.61	–
[12], 3000 nM	17.7	–
[13], 4.1 nM	0.884	–
[13], 12.3 nM	0.569	–
[13], 37 nM	0.817	–
[13], 333.3 nM	1.4	–
[13], 1000 nM	2.38	–
[13], 3000 nM	19.6	–
[14], 4.1 nM	0.591	–
[14], 12.3 nM	0.726	–
[14], 37 nM	0.599	–
[14], 333.3 nM	0.631	–
[14], 1000 nM	1.92	–
[14], 3000 nM	15.3	–

CC(NCCC(c1ccccc1)c1ccccc1)c1ccccc1 (configuration not stated) [Fendiline hydrochloride]
Conditions	phenotypic distance	surviving fraction
[1], 4.1 nM	–	1.09
[1], 12.3 nM	–	0.954
[1], 37 nM	–	0.955
[1], 111.1 nM	–	1.02
[1], 333.3 nM	–	0.968
[1], 1000 nM	–	0.988
[1], 3000 nM	–	1.15
[2], 4.1 nM	–	0.897
[2], 12.3 nM	–	1.08
[2], 37 nM	–	0.956
[2], 111.1 nM	–	1.12
[2], 333.3 nM	–	0.967
[2], 1000 nM	–	1.08
[2], 3000 nM	–	1.04
[3], 4.1 nM	–	1.03
[3], 12.3 nM	–	0.876
[3], 37 nM	–	0.962
[3], 111.1 nM	–	0.95
[3], 333.3 nM	–	1.01
[3], 1000 nM	–	0.962
[3], 3000 nM	–	0.961
[4], 4.1 nM	–	0.853
[4], 12.3 nM	–	0.993
[4], 37 nM	–	0.984
[4], 111.1 nM	–	0.898
[4], 333.3 nM	–	1.03
[4], 1000 nM	–	1.1
[4], 3000 nM	–	0.976
[5], 4.1 nM	–	0.944
[5], 12.3 nM	–	0.918
[5], 37 nM	–	0.939
[5], 111.1 nM	–	1.11
[5], 333.3 nM	–	0.92
[5], 1000 nM	–	1.28
[5], 3000 nM	–	0.989
[6], 4.1 nM	–	1.02
[6], 12.3 nM	–	0.952
[6], 37 nM	–	0.969
[6], 111.1 nM	–	0.959
[6], 333.3 nM	–	1.07
[6], 1000 nM	–	0.954
[6], 3000 nM	–	1.09
[7], 4.1 nM	–	0.982
[7], 12.3 nM	–	1.03
[7], 37 nM	–	1.01
[7], 111.1 nM	–	1.08
[7], 333.3 nM	–	1.07
[7], 1000 nM	–	1.04
[7], 3000 nM	–	1.09
[8], 4.1 nM	0.374	–
[8], 12.3 nM	0.903	–
[8], 37 nM	0.419	–
[8], 111.1 nM	0.715	–
[8], 333.3 nM	0.436	–
[8], 1000 nM	0.581	–
[8], 3000 nM	1.24	–
[9], 4.1 nM	0.507	–
[9], 12.3 nM	0.605	–
[9], 37 nM	0.415	–
[9], 111.1 nM	0.773	–
[9], 333.3 nM	0.762	–
[9], 1000 nM	0.645	–
[9], 3000 nM	0.861	–
[10], 4.1 nM	0.402	–
[10], 12.3 nM	0.709	–
[10], 37 nM	0.475	–
[10], 111.1 nM	0.445	–
[10], 333.3 nM	0.634	–
[10], 1000 nM	0.668	–
[10], 3000 nM	0.648	–
[11], 4.1 nM	1.49	–
[11], 12.3 nM	0.566	–
[11], 37 nM	0.415	–
[11], 111.1 nM	1.15	–
[11], 333.3 nM	0.412	–
[11], 1000 nM	0.615	–
[11], 3000 nM	1.21	–
[12], 4.1 nM	0.761	–
[12], 12.3 nM	0.264	–
[12], 37 nM	0.282	–
[12], 111.1 nM	0.794	–
[12], 333.3 nM	0.524	–
[12], 1000 nM	1.26	–
[12], 3000 nM	0.835	–
[13], 4.1 nM	0.542	–
[13], 12.3 nM	0.85	–
[13], 37 nM	0.586	–
[13], 111.1 nM	0.878	–
[13], 333.3 nM	0.354	–
[13], 1000 nM	0.817	–
[13], 3000 nM	0.823	–
[14], 4.1 nM	0.595	–
[14], 12.3 nM	0.626	–
[14], 37 nM	0.661	–
[14], 111.1 nM	0.669	–
[14], 333.3 nM	0.423	–
[14], 1000 nM	0.376	–
[14], 3000 nM	0.679	–
